Counter-ions that a name gives are not always drawn.
Experiments:
activated human C1 = activated human C1 (Homo sapiens, UniProt P09871); assay: Test Code 026 (C1 inhibitor); type: biochemical; details: in vitro; serial twofold dilution assay, higher well number indicates higher activity
Excerpt: (§1) An active inhibitor protects C2 from C1 and C4; (ii) Test Code 035 (C3-C9 inhibitor)--This test determines the ability of the late components of human complement (C3-C9) to lyse EAC 142 in the presence of appropriate dilutions of the test compound. An active inhibitor protects EAC 142 from lysis by human C3-C9; (iii) Test Code 036 (C-Shunt inhibitor)--In this test human erythrocytes rendered fragile are lysed in autologous serum via the shunt pathway activated by cobra venom factor in the presence of appropriate dilutions of the test compound. Inhibition of the shunt pathway results in failure of lysis; (iv) Cap 50 Test--Here, appropriate amounts of the test compound are added to a pool of guinea pig serum in vitro, after which the complement level is determined in undiluted serum by the serum capillary tube assay of U.S. Pat. No. 3,876,376. The concentration of compound inhibiting 50% is reported; and (v) Guinea Pig Intraperitoneal Test (GPIP)--Guinea pigs weighing about 300 g are dosed intraperitoneally (i.p.) with 200 mg/kg of the test compound dissolved in saline and adjusted to pH 7-8. Approximately 0.4 ml blood samples, taken by orbital sinus puncture 30 minutes and one hour after injections, are collected directly into centrifuge tubes; 5 ml blood samples, taken by decapitation 2 hours after injection are collected directly into disPo® beakers. The samples were allowed to clot, centrifuged, and the resultant sera were assayed for complement activity using the capillary complement assay referred to above. Percent inhibition is calculated by comparison with simultaneous controls. The results of the GPIP appear in Table I together with results of Test Code 026, 035, 036 and Cap 50.

[1] = system: late components of human complement (C3-C9); assay: Test Code 035 (C3-C9 inhibitor), lysis of EAC 142; type: biochemical; details: in vitro; serial twofold dilution assay, higher well number indicates higher activity
Excerpt: as §1

[2] = system: shunt pathway activated by cobra venom factor; assay: Test Code 036 (C-Shunt inhibitor), lysis of fragile human erythrocytes in autologous serum; type: cell-based; details: in vitro; serial twofold dilution assay, higher well number indicates higher activity
Excerpt: as §1

[3] = system: complement activity of sera; assay: Guinea Pig Intraperitoneal Test (GPIP); type: in vivo; details: 200 mg/kg i.p.
Excerpt: as §1

[4] = system: total hemolytic complement activity of human serum; details: in vitro and in vivo, judged by reduction in total hemolytic complement activity; cited from earlier work

Row | Compound | C1 026 Wells (activated human C1) [Wells] | C-Late 035 Wells [1] [Wells] | C-Shunt Inhibition 036 Wells [2] [Wells] | In vivo Activity (Guinea pigs) % Inhibition Intraperitoneal, 30 minutes ([3]; blood sample 30 minutes after injection) [%] | In vivo Activity (Guinea pigs) % Inhibition Intraperitoneal, 60 minutes ([3]; blood sample 60 minutes after injection) [%] | In vivo Activity (Guinea pigs) % Inhibition Intraperitoneal, 120 minutes ([3]; blood sample 120 minutes after injection) [%] | anticomplementary activity on human serum [4]
1 | O=S(=O)(O)OC[C@H]1O[C@H](OC[C@H]2O[C@H](O[C@]3(COS(=O)(=O)O)O[C@H](CO[C@@H]4O[C@H](COS(=O)(=O)O)[C@@H](O[C@H]5O[C@H](COS(=O)(=O)O)[C@@H](O[C@H]6O[C@H](COS(=O)(=O)O)[C@@H](OS(=O)(=O)O)[C@H](OS(=O)(=O)O)[C@H]6OS(=O)(=O)O)[C@H](OS(=O)(=O)O)[C@H]5OS(=O)(=O)O)[C@H](OS(=O)(=O)O)[C@H]4OS(=O)(=O)O)[C@@H](OS(=O)(=O)O)[C@@H]3OS(=O)(=O)O)[C@H](OS(=O)(=O)O)[C@@H](OS(=O)(=O)O)[C@@H]2OS(=O)(=O)O)[C@H](OS(=O)(=O)O)[C@@H](OS(=O)(=O)O)[C@H]1OS(=O)(=O)O [drawing 24, O-α-D-Glucopyranosyl(1→4)-O-α-D-glucopyranosyl(1→4)-O-β-D-glucopyranosyl(1→6)-β-D-fructofuranosyl-O-α-D-galactopyranosyl(1→6)-α-D-glucopyranoside eicosakis(H-sulfate), eicosasodium salt] | 9 | 1 | 6 | 49 | 67 | 78 | 
2 | O=S(=O)(O)OC[C@H]1O[C@H](OC[C@H]2O[C@H](O[C@]3(COS(=O)(=O)O)O[C@H](CO[C@@H]4O[C@H](COS(=O)(=O)O)[C@@H](O[C@H]5O[C@H](COS(=O)(=O)O)[C@@H](O[C@H]6O[C@H](COS(=O)(=O)O)[C@@H](OS(=O)(=O)O)[C@H](OS(=O)(=O)O)[C@H]6OS(=O)(=O)O)[C@H](OS(=O)(=O)O)[C@H]5OS(=O)(=O)O)[C@H](OS(=O)(=O)O)[C@H]4OS(=O)(=O)O)[C@@H](OS(=O)(=O)O)[C@@H]3OS(=O)(=O)O)[C@H](OS(=O)(=O)O)[C@@H](OS(=O)(=O)O)[C@@H]2OS(=O)(=O)O)[C@H](OS(=O)(=O)O)[C@@H](OS(=O)(=O)O)[C@H]1OS(=O)(=O)O [drawing 23, O-α-D-Glucopyranosyl(1→4)-O-α-D-glucopyranosyl(1→4)-O-β-D-glucopyranosyl(1→6)-β-D-fructofuranosyl-O-α-D-galactopyranosyl(1→6)-α-D-glucopyranoside eicosakis(H-sulfate) eicosasalt with trimethylamine] | 9 | 2 | 5 |  |  |  | 
3 | O=S(=O)(O)OC[C@H]1O[C@H](OC[C@H]2O[C@H](O[C@]3(COS(=O)(=O)O)O[C@H](CO[C@@H]4O[C@H](COS(=O)(=O)O)[C@@H](O[C@H]5O[C@H](COS(=O)(=O)O)[C@@H](O[C@H]6O[C@H](COS(=O)(=O)O)[C@@H](O[C@H]7O[C@H](COS(=O)(=O)O)[C@@H](O[C@H]8O[C@H](COS(=O)(=O)O)[C@@H](O[C@H]9O[C@H](COS(=O)(=O)O)[C@@H](O[C@H]%10O[C@H](COS(=O)(=O)O)[C@@H](OS(=O)(=O)O)[C@H](OS(=O)(=O)O)[C@H]%10OS(=O)(=O)O)[C@H](OS(=O)(=O)O)[C@H]9OS(=O)(=O)O)[C@H](OS(=O)(=O)O)[C@H]8OS(=O)(=O)O)[C@H](OS(=O)(=O)O)[C@H]7OS(=O)(=O)O)[C@H](OS(=O)(=O)O)[C@H]6OS(=O)(=O)O)[C@H](OS(=O)(=O)O)[C@H]5OS(=O)(=O)O)[C@H](OS(=O)(=O)O)[C@H]4OS(=O)(=O)O)[C@@H](OS(=O)(=O)O)[C@@H]3OS(=O)(=O)O)[C@H](OS(=O)(=O)O)[C@@H](OS(=O)(=O)O)[C@@H]2OS(=O)(=O)O)[C@H](OS(=O)(=O)O)[C@@H](OS(=O)(=O)O)[C@H]1OS(=O)(=O)O [drawing 25, O-α-D-Glucopyranosyl(1→4)-[O-α-D-glucopyranosyl(1→4)]5 -O-β-D-glucopyranosyl(1→6)-β-D-fructofuranosyl-O-α-D-galactopyranosyl(1→6)-α-D-glucopyranoside dotriacontakis(H-sulfate), dotriacontasalt with trimethylamine] | 9 | 1 | 4 |  |  |  | 
4 | pentosanpolysulfoester |  |  |  |  |  |  | has an anticomplementary activity on human serum, both in vitro and in vivo
5 | O=S(=O)(O)OC[C@H]1O[C@H](OC[C@H]2O[C@H](O[C@]3(COS(=O)(=O)O)O[C@H](CO[C@@H]4O[C@H](COS(=O)(=O)O)[C@@H](O[C@H]5O[C@H](COS(=O)(=O)O)[C@@H](O[C@H]6O[C@H](COS(=O)(=O)O)[C@@H](O[C@H]7O[C@H](COS(=O)(=O)O)[C@@H](O[C@H]8O[C@H](COS(=O)(=O)O)[C@@H](O[C@H]9O[C@H](COS(=O)(=O)O)[C@@H](O[C@H]%10O[C@H](COS(=O)(=O)O)[C@@H](OS(=O)(=O)O)[C@H](OS(=O)(=O)O)[C@H]%10OS(=O)(=O)O)[C@H](OS(=O)(=O)O)[C@H]9OS(=O)(=O)O)[C@H](OS(=O)(=O)O)[C@H]8OS(=O)(=O)O)[C@H](OS(=O)(=O)O)[C@H]7OS(=O)(=O)O)[C@H](OS(=O)(=O)O)[C@H]6OS(=O)(=O)O)[C@H](OS(=O)(=O)O)[C@H]5OS(=O)(=O)O)[C@H](OS(=O)(=O)O)[C@H]4OS(=O)(=O)O)[C@@H](OS(=O)(=O)O)[C@@H]3OS(=O)(=O)O)[C@H](OS(=O)(=O)O)[C@@H](OS(=O)(=O)O)[C@@H]2OS(=O)(=O)O)[C@H](OS(=O)(=O)O)[C@@H](OS(=O)(=O)O)[C@H]1OS(=O)(=O)O [drawing 26, O-α-D-Glucopyranosyl(1→4)-[O-α-D-glucopyranosyl(1→4)]5 -O-β-D-glucopyranosyl(1→6)-β-D-fructofuranosyl-O-α-D-galactopyranosyl(1→6)-α-D-glucopyranoside dotriacontakis(H-sulfate), dotriacontasodium salt] | 9 | 3 | 5 |  |  |  | 
